Measurements from PubChem BioAssay AID2433 (Vanderbilt High Throughput Screening Facility, 2010).
The source made the active and inactive calls.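 The calls were made as follows: active = a concentration-response curve whose fit quality R2 exceeds 0.5; inactive = the rest.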

Target: Muscarinic acetylcholine receptor M5 (Homo sapiens) (UniProt P08912)
Test: M5 receptor positive allosteric modulation off-target check, dose response, selectivity assay for M1 muscarinic PAM project, cell-based, CHO-K1 M5, Fluo-4 calcium, ACh EC20 (AID 2433)
Settings: CHO-K1 M5 cells; for % of max ACh response: at 30 µM (top of the series)

Sequence of Muscarinic acetylcholine receptor M5 (Homo sapiens) (P08912 whole entry, looked up): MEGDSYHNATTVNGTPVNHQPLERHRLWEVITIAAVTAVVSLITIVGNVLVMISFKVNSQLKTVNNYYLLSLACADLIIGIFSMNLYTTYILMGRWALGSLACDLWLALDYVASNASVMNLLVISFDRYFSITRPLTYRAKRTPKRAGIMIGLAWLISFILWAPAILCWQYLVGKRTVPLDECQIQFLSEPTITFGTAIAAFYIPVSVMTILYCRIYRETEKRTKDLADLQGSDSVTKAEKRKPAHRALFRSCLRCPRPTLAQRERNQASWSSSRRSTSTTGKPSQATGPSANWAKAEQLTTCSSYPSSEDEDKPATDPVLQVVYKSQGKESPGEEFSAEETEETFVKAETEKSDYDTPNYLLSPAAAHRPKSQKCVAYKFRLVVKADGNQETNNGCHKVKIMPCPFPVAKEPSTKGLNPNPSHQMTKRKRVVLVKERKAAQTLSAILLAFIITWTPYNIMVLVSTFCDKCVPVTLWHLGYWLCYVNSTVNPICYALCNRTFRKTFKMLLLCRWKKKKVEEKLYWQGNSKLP

| Structure (SMILES) | % of max ACh response | EC50 |
| --- | --- | --- |
| Cn1cc(-c2cc(F)c(CN3C(=O)C(=O)c4ccccc43)c(F)c2)cn1 | inactive | – |
| Cn1cc(-c2ccc(CN3C(=O)C(=O)c4ccccc43)c(F)c2)cn1 | inactive | – |
| Cn1cc(-c2ccc(CN3C(=O)C(=O)c4ccccc43)cc2)cn1 | – | inactive |
